Results from ChEMBL document CHEMBL4339205, “Design, synthesis, and biological evaluation of novel pyrrolo[1,2-a]pyrazine derivatives” (Bioorg Med Chem Lett, 2019).
The source made the active and inactive calls. The rule behind the calls is not given here.

Columns and labels:
U-937 [1] = assay: Induction of apoptosis in human U937 cells assessed as early apoptotic cells at 0.3 uM measured after 2 days by muse Annexin V/dead cell reagent staining-based flow cytometry (reference value: 0.7 %); type: functional
U-937 [2] = assay: Induction of apoptosis in human U937 cells assessed as live cells at 0.3 uM measured after 1 day by muse Annexin V/dead cell reagent staining-based flow cytometry (reference value: 95.05 %); type: functional
U-937 [3] = assay: Induction of apoptosis in human U937 cells assessed as live cells at 0.3 uM measured after 3 days by muse Annexin V/dead cell reagent staining-based flow cytometry (reference value: 95.05 %); type: functional
U-937 [4] = assay: Induction of apoptosis in human U937 cells assessed as necrotic cells at 0.3 uM measured after 3 days by muse Annexin V/dead cell reagent staining-based flow cytometry (reference value: 2.5 %); type: functional
U-937 [5] = assay: Induction of apoptosis in human U937 cells assessed as necrotic cells at 0.3 uM measured after 2 days by muse Annexin V/dead cell reagent staining-based flow cytometry (reference value: 2.5 %); type: functional
U-937 [6] = assay: Induction of apoptosis in human U937 cells assessed as necrotic cells at 0.3 uM measured after 1 day by muse Annexin V/dead cell reagent staining-based flow cytometry (reference value: 2.5 %); type: functional
U-937 [7] = assay: Induction of apoptosis in human U937 cells assessed as early apoptotic cells at 0.3 uM measured after 3 days by muse Annexin V/dead cell reagent staining-based flow cytometry (reference value: 0.7 %); type: functional
U-937 [8] = assay: Induction of apoptosis in human U937 cells assessed as early apoptotic cells at 0.3 uM measured after 1 day by muse Annexin V/dead cell reagent staining-based flow cytometry (reference value: 0.7 %); type: functional
U-937 [9] = assay: Cytotoxicity against human U937 cells assessed as reduction in cell viability at 10 uM measured after 3 days by CCK8 assay; type: functional, cell-based
U-937 [10] = assay: Induction of apoptosis in human U937 cells assessed as live cells at 0.3 uM measured after 2 days by muse Annexin V/dead cell reagent staining-based flow cytometry (reference value: 95.05 %); type: functional
U-937 [11] = assay: Induction of apoptosis in human U937 cells assessed as late apoptotic cells at 0.3 uM measured after 3 days by muse Annexin V/dead cell reagent staining-based flow cytometry (reference value: 1.75 %); type: functional
U-937 [12] = assay: Induction of apoptosis in human U937 cells assessed as late apoptotic cells at 0.3 uM measured after 1 day by muse Annexin V/dead cell reagent staining-based flow cytometry (reference value: 1.75 %); type: functional
U-937 [13] = assay: Cytotoxicity against human U937 cells assessed as reduction in cell viability measured after 3 days by CCK8 assay; type: functional, cell-based; details: U-937, 72 h
U-937 [14] = assay: Induction of apoptosis in human U937 cells assessed as late apoptotic cells at 0.3 uM measured after 2 days by muse Annexin V/dead cell reagent staining-based flow cytometry (reference value: 1.75 %); type: functional
[15] = molecular target: c-Jun N-terminal kinase, JNK (Homo sapiens) (UniProt P45983+P53779+P45984); assay: Inhibition of JNK phosphorylation in human U937 cells at 0.3 uM measured after 1 to 3 hrs y Western blot analysis; type: cell-based
U-937 [16] = assay: Induction of apoptosis in human U937 cells assessed as increase in caspase-3/7 activity up to 1 uM after 24 hrs; type: functional, cell-based
[17] = molecular target: T1, Protein farnesyltransferase (Homo sapiens) (UniProt P49354+P49356); assay: Inhibition of FTase in human U937 cells assessed as reduction in p38 MAPK phosphorylation at 0.3 uM measured after 1 to 3 hrs y Western blot analysis; type: cell-based
CCD-18Co = assay: Cytotoxicity against human CCD-18Co cells assessed as reduction in cell viability measured after 3 days by CCK8 assay; type: cell-based; details: 72 h
Homo sapiens = species: Homo sapiens; assay: Inhibition of ERK phosphorylation in human U937 cells at 0.3 uM measured after 1 to 3 hrs y Western blot analysis; type: cell-based
[18] = molecular target: T1, Protein farnesyltransferase (Homo sapiens); assay: Inhibition of FTase (unknown origin); type: protein-complex assay

## Nc1ccn([C@@H]2O[C@H](CO)[C@@H](O)[C@@H]2O)c(=O)n1 [CYTARABINE]
U-937 [1]
  Activity: 2.65%
U-937 [2]
  Activity: 79.05%
U-937 [3]
  Activity: 69.7%
U-937 [4]
  Activity: 11.05%
U-937 [5]
  Activity: 8.8%
U-937 [6]
  Activity: 11.2%
U-937 [7]
  Activity: 8.7%
U-937 [8]
  Activity: 4.2%
U-937 [9]
  Activity: Active
U-937 [10]
  Activity: 83.2%
U-937 [11]
  Activity: 10.55%
U-937 [12]
  Activity: 5.55%
U-937 [13]
  IC50: 2 nM
U-937 [14]
  Activity: 5.35%

## COc1ccc(/C=C/C(=O)c2ccn3cc(-c4ccccc4)ncc23)c(OC)c1
[15]
  inhibition: inactive
U-937 [1]
  Activity: 2.15%
U-937 [2]
  Activity: 84.45%
U-937 [3]
  Activity: 83.15%
U-937 [4]
  Activity: 5.2%
U-937 [16]
  Activity: Active
U-937 [5]
  Activity: 5.1%
U-937 [6]
  Activity: 8.4%
U-937 [7]
  Activity: 5.95%
[17]
  inhibition: Active
U-937 [8]
  Activity: 2.3%
CCD-18Co
  IC50: 7.44 µM
Homo sapiens
  inhibition: inactive
U-937 [10]
  Activity: 88.55%
U-937 [11]
  Activity: 5.7%
U-937 [12]
  Activity: 4.85%
[18]
  inhibition: Active
U-937 [13]
  IC50: 180 nM
U-937 [14]
  Activity: 4.2%

## COc1cccc(/C=C/C(=O)c2ccn3cc(-c4ccccc4)ncc23)c1
U-937 [9]
  Activity: Active

## COc1ccc(/C=C/C(=O)c2ccn3cc(-c4ccccc4)ncc23)cc1
U-937 [9]
  Activity: Active

## O=C(/C=C/c1ccccc1I)c1ccn2cc(-c3ccccc3)ncc12
U-937 [9]
  Activity: inactive

## O=C(/C=C/c1ccccc1F)c1ccn2cc(-c3ccccc3)ncc12
U-937 [9]
  Activity: inactive

## O=C(/C=C/c1ccncc1)c1ccn2cc(-c3ccccc3)ncc12
U-937 [9]
  Activity: Active
U-937 [13]
  IC50: 690 nM

## COc1ccccc1/C=C/C(=O)c1ccn2cc(-c3ccccc3)ncc12
U-937 [9]
  Activity: Active
U-937 [13]
  IC50: 770 nM

## O=C(/C=C/c1cccnc1)c1ccn2cc(-c3ccccc3)ncc12
U-937 [9]
  Activity: Active
U-937 [13]
  IC50: 630 nM

## O=C(/C=C/c1ccccc1Cl)c1ccn2cc(-c3ccccc3)ncc12
U-937 [9]
  Activity: inactive

## COc1ccc(OC)c(/C=C/C(=O)c2ccn3cc(-c4ccccc4)ncc23)c1
U-937 [9]
  Activity: inactive

## O=C(/C=C/c1ccccn1)c1ccn2cc(-c3ccccc3)ncc12
U-937 [9]
  Activity: Active
U-937 [13]
  IC50: 880 nM

## O=C(/C=C/c1ccccc1Br)c1ccn2cc(-c3ccccc3)ncc12
U-937 [9]
  Activity: inactive
